Laboratory results reported in the Deep4Chem optical property database.
Values belong to the compound of their own block, whether it stands above or below them.

Assay: photoluminescence quantum yield (fraction); solvent given as SMILES

SMILES: CNC1=C2C=CC=[N+]2[B-](F)(F)n2cccc21
photoluminescence quantum yield (in C1CCCCC1): 0.7
photoluminescence quantum yield (in CC(C)=O): 0.16
photoluminescence quantum yield (in CCO): 0.16
photoluminescence quantum yield (in CCOC(C)=O): 0.42
photoluminescence quantum yield (in CO): 0.1
photoluminescence quantum yield (in OCC(F)(F)F): 0.23

SMILES: c1ccc(N(c2ccccc2)c2ccc(-c3ccc4c(c3)C3(c5ccccc5Sc5ccccc53)c3cc(-c5ccc(N(c6ccccc6)c6ccccc6)cc5)ccc3-4)cc2)cc1
photoluminescence quantum yield (in ClCCl): 0.81
photoluminescence quantum yield (in c1cc(-n2c3ccccc3c3ccccc32)cc(-n2c3ccccc3c3ccccc32)c1): 0.88

SMILES: O=C(c1ccncc1)c1ccc(-n2c3ccccc3c3cc(-n4c5ccccc5c5ccccc54)ccc32)cc1
photoluminescence quantum yield (in Cc1ccccc1): 0.178
photoluminescence quantum yield (in c1cc(-c2cccc(-n3c4ccccc4c4ccccc43)c2)cc(-n2c3ccccc3c3ccccc32)c1): 0.72

SMILES: CC1=CC(C)=[N+]2C1=C(c1ccc(-c3ccc(O)cc3)s1)c1c(C)cc(C)n1[B-]2(F)F
photoluminescence quantum yield (in Cc1ccccc1): 0.069

SMILES: Fc1c(F)c(-n2c3ccccc3c3ccccc32)c(F)c(F)c1/C=C/c1ccc(C(=C(c2ccccc2)c2ccccc2)c2ccccc2)cc1
photoluminescence quantum yield (in Cc1ccccc1): 0.003

SMILES: C(=C/c1ccc(N(c2ccccc2)c2ccccc2)cc1)/c1ccc(N(c2ccccc2)c2ccccc2)cc1
photoluminescence quantum yield (in ClCCl): 0.99

SMILES: COc1ccccc1C1=[N+]2C(=C(c3ccccc3)c3c4ccccc4c(-c4ccccc4OC)n3[B-]2(F)F)c2ccccc21
photoluminescence quantum yield (in ClCCl): 0.91

SMILES: C=C(C)C(CN1C(=O)c2cccc3c2c(cc2nc(C)oc23)C1=O)OO (stereo not given)
photoluminescence quantum yield (in CCO): 0.061

SMILES: O=c1ccc2cc3c(cc2o1)OCC3
photoluminescence quantum yield (in CC(C)O): 0.23
photoluminescence quantum yield (in CCO): 0.23
photoluminescence quantum yield (in CCOCC): 0.06
photoluminescence quantum yield (in CO): 0.3
photoluminescence quantum yield (in O): 0.83

SMILES: O=C1Cc2ccc(cc2)CC(=O)Cc2ccc(c3nsnc23)C1
photoluminescence quantum yield (in C1CCCCC1): 0.85
photoluminescence quantum yield (in CC#N): 0.45
photoluminescence quantum yield (in ClC(Cl)Cl): 0.68

SMILES: c1ccc(-c2nc3c(c4c2-c2ccccc2CC4)-c2ccccc2CC3)cc1
photoluminescence quantum yield (in C1CCOC1): 0.009
photoluminescence quantum yield (in CC#N): 0.001
photoluminescence quantum yield (in CCCCCC): 0.001
photoluminescence quantum yield (in CCOC(C)=O): 0.03
photoluminescence quantum yield (in CO): 0.002
photoluminescence quantum yield (in CS(C)=O): 0.003
photoluminescence quantum yield (in Cc1ccccc1): 0.002
photoluminescence quantum yield (in ClCCl): 0.01

SMILES: CN(C)c1ccc2nc(/C=C/c3ccccc3)c(=O)oc2c1
photoluminescence quantum yield (in C1CCCCC1): 0.77
photoluminescence quantum yield (in C1COCCO1): 0.79
photoluminescence quantum yield (in CC#N): 0.54
photoluminescence quantum yield (in CC(C)=O): 0.71
photoluminescence quantum yield (in CCCCCCC): 0.74
photoluminescence quantum yield (in CCO): 0.55
photoluminescence quantum yield (in CCOC(C)=O): 0.75
photoluminescence quantum yield (in CN(C)C=O): 0.66
photoluminescence quantum yield (in CS(C)=O): 0.61
photoluminescence quantum yield (in Cc1ccccc1): 0.77
photoluminescence quantum yield (in ClC(Cl)Cl): 0.81
photoluminescence quantum yield (in ClCCl): 0.81

SMILES: c1ccc(N(c2ccccc2)c2ccc3c4cccc5c(N(c6ccccc6)c6ccccc6)ccc(c6cccc2c63)c54)cc1
photoluminescence quantum yield (in ClCCl): 0.65

SMILES: CC[N+]1(CC)CN2C(=N1)C(C(=O)O)=Cc1ccccc12
photoluminescence quantum yield (in CN(C)C=O): 0.006
photoluminescence quantum yield (in O): 0.531

SMILES: c1ccc(-c2cc3cccc[n+]3[b-]3c(-c4cccc5[b-]4[n+]4ccccc4cc5-c4ccccc4)cccc32)cc1
photoluminescence quantum yield (in C1CCCCC1): 0.02

SMILES: CCOC(=O)C(C(=O)OCC)C1=[N+]2C(=C(c3ccc(C)cc3)c3ccc(C(C(=O)OCC)C(=O)OCC)n3[B-]2(F)F)C=C1
photoluminescence quantum yield (in C1CCCCC1): 0.62
photoluminescence quantum yield (in C1CCOC1): 0.46
photoluminescence quantum yield (in CCOC(C)=O): 0.38
photoluminescence quantum yield (in CO): 0.35
photoluminescence quantum yield (in Cc1ccccc1): 0.89
photoluminescence quantum yield (in ClC(Cl)Cl): 0.59

SMILES: C[N+]1=C(/C=C/C=C2/N(CCC[N+](C)(C)C)c3ccc(S(=O)(=O)[O-])cc3C2(C)C)C(C)(C)c2ccccc21
photoluminescence quantum yield (in CS(C)=O): 0.1

SMILES: CN(C)c1ccc(/C=C/c2ccc([N+](=O)[O-])c(O)c2)cc1
photoluminescence quantum yield (in C1CCCCC1): 0.11
photoluminescence quantum yield (in C1COCCO1): 0.02
photoluminescence quantum yield (in CCCCCCC): 0.09
photoluminescence quantum yield (in Cc1ccccc1): 0.09

SMILES: C=CC1CN2CCC1CC2[C@H](O)c1ccnc2ccc(OC)cc12 (stereo not given in full)
photoluminescence quantum yield (in O): 0.546

SMILES: N#Cc1ccc(C#Cc2ccccc2C#N)cc1
photoluminescence quantum yield (in ClC(Cl)Cl): 0.452

SMILES: CCCCCCOc1ccc(C#Cc2ccc(C#CC#Cc3ccc(C#Cc4ccc(OCCCCCC)c(OCCCCCC)c4)c4nsnc34)c3nsnc23)cc1OCCCCCC
photoluminescence quantum yield (in CN(C)C=O): 0.006
photoluminescence quantum yield (in COc1ccccc1): 0.43
photoluminescence quantum yield (in Cc1ccccc1): 0.58
photoluminescence quantum yield (in ClC(Cl)Cl): 0.49
photoluminescence quantum yield (in ClCCCl): 0.27
photoluminescence quantum yield (in ClCCl): 0.36

SMILES: O=P1(c2ccccc2)C(c2cc(C(F)(F)F)cc(C(F)(F)F)c2)=Cc2c3ccc4cccc5ccc(c6cc(-c7ccc(N(c8ccccc8)c8ccccc8)cc7)n1c26)c3c45 (stereo not given)
photoluminescence quantum yield (in C1CCCCC1): 0.44
photoluminescence quantum yield (in C1CCOC1): 0.17
photoluminescence quantum yield (in C1COCCO1): 0.48
photoluminescence quantum yield (in CC#N): 0.004
photoluminescence quantum yield (in CC(C)=O): 0.11
photoluminescence quantum yield (in CO): 0.004
photoluminescence quantum yield (in Cc1ccccc1): 0.49
photoluminescence quantum yield (in ClC(Cl)Cl): 0.49
photoluminescence quantum yield (in ClCCl): 0.23

SMILES: CCOC(=O)c1cc(C(=O)OCC)c2cc(N(C)C)ccc2n1
photoluminescence quantum yield (in CCO): 0.595

SMILES: FC(F)(F)c1cc2n(n1)[B-]1(c3ccccc3Oc3ccccc31)[n+]1ccc3ccccc3c1-2
photoluminescence quantum yield (in C1CCCCC1): 0.0026
photoluminescence quantum yield (in Cc1ccccc1): 0.0027
photoluminescence quantum yield (in ClCCl): 0.0029

SMILES: CCn1c2c(-c3ccc(-c4cccs4)s3)cc(C(C)(C)C)cc2c2cc(C(C)(C)C)cc(-c3ccc(-c4cccs4)s3)c21
photoluminescence quantum yield (in ClCCl): 0.106

SMILES: Cc1cc(C)c(B(c2ccc(-n3c4ccccc4c4ccccc43)cc2)c2c(C)cc(C)cc2C)c(C)c1
photoluminescence quantum yield (in Cc1ccccc1): 0.75

SMILES: C1=C/C2=C(\c3ccccc3)c3c[nH]c(c3)/C(c3ccccc3)=C3/C=CC(=N3)/C(c3ccccc3)=c3/cc/c([nH]3)=C(\c3ccccc3)C1=N2
photoluminescence quantum yield (in CC(=O)N(C)C): 0.046

The remaining lines, values ahead:

photoluminescence quantum yield (in C1COCCO1): 0.26
photoluminescence quantum yield (in CC#N): 0.04
photoluminescence quantum yield (in ClCCl): 0.2
SMILES: CCCCN(CCCC)c1ccc(/C=C/c2ccc3nc(/C=C/c4ccc(N(C)C)cc4)c(=O)n(CCC)c3c2)cc1

photoluminescence quantum yield (in ClC(Cl)Cl): 0.92
SMILES: CCN(CC)c1ccc2cc(-c3cn4cc5ccccc5cc4n3)c(=O)oc2c1

photoluminescence quantum yield (in C1CCCCC1): 0.52
photoluminescence quantum yield (in CC#N): 0.43
photoluminescence quantum yield (in ClCCl): 0.7
SMILES: c1ccc2c(-c3ccc4sc5ccccc5c4c3)c3ccccc3cc2c1

photoluminescence quantum yield (in ClCCl): 0.15
SMILES: [O-][n+]1c(-c2ccc(Br)cc2)cc(N2CCOCC2)nc1/C=C/c1ccccc1

photoluminescence quantum yield (in ClCCl): 0.29
SMILES: C[Si]1(C)O[Si](C)(C)c2cc3nc4ccc(Cl)cc4c(-c4ccccc4)c3cc2[Si](C)(C)O1

photoluminescence quantum yield (in CCCCCC): 1
photoluminescence quantum yield (in CCCCCCCCO): 0.72
photoluminescence quantum yield (in CCOC(C)=O): 0.81
photoluminescence quantum yield (in CN(C)C=O): 0.67
photoluminescence quantum yield (in ClCCl): 0.8
SMILES: CC1=CC(C)=[N+]2C1=Cc1c3ccccc3c(C#Cc3ccsc3)n1[B-]2(F)F

photoluminescence quantum yield (in CCCCCC): 0.42
photoluminescence quantum yield (in CO): 0.5
photoluminescence quantum yield (in ClCCl): 0.5
SMILES: C[Si](C)(C)c1ccc2ccc3c([Si](C)(C)C)ccc4ccc1c2c43

photoluminescence quantum yield (in ClCCl): 0.59
SMILES: CN(C)c1ccc(/C=C/c2cc(/C=C/c3ccc(N(C)C)cc3)nc(/C=C/c3ccc(N(c4ccccc4)c4ccccc4)cc3)n2)cc1

photoluminescence quantum yield (in ClCCl): 0.97
SMILES: c1ccc(-c2c3ccccc3c(-c3ccccc3)c3cc4ccccc4cc23)cc1

photoluminescence quantum yield (in CC#N): 0.88
SMILES: O=c1oc2ccccc2cc1C#Cc1ccccc1

photoluminescence quantum yield (in ClCCl): 0.74
SMILES: O=C1c2ccccc2C2=Nc3ccc4ccccc4[n+]3[B-](F)(F)N12

photoluminescence quantum yield (in ClCCl): 0.31
SMILES: CCCCC(CC)Cn1c2cc(C#N)ccc2c2cc(-c3ccc(N(c4ccccc4)c4ccccc4)cc3)c(C#N)cc21 (stereo not given)

photoluminescence quantum yield (in ClCCl): 0.55
SMILES: C[Si]1(C)C(c2ccccc2)=Cc2ccccc21
